According to patent US20230226018A1, “APPLICATION OF COMPOUND USING INTRA-CYCLIC PEROXO-BRIDGED SESQUITERPENES AS PARENT NUCLEUS IN METABOLISM-RELATED FATTY LIVER DISEASES” (SHANGHAI JIAO TONG UNIVERSITY, priority 2021, published 2023):

How the values were obtained:
[1] = tested on: C57 mice fed with 10% lard and 5% fructose; test: Expression of autophagy-related proteins (TOR, LC3) in liver of mice on high-fat and high-sugar diet; assay type: in vivo; details: artemisinin 100 mg/kg for 12 weeks, FIGS. 11A-11G
Experimental: (§1) C57 mice were selected and fed with feedstuffs that were added with 10% lard and 5% fructose. After 12 weeks, the mice suffered from liver metabolism disruption, generated insulin resistance, and were stuck in mitochondrial dysfunction in liver cells, thus resulting in a decrease in fatty acid β-oxidation capacity and fat accumulation in the liver, and inflammation and fibrosis were produced. Artemisinin was given at a dosage of 100 mg/kg from the 13th week as a treatment for 12 weeks. At the end of the experiment, the mice were dissected to obtain livers. A part of the livers was subjected to HE staining and Oli red O staining to quantify the liver lipids and conduct a pathological scoring of liver steatosis of the mice based on the steatosis activity fibrosis (SAF) scoring system.
A part of the livers of the mice in each group mentioned above was taken, RNA and protein were extracted, and the study of the expression of related genes and proteins was conducted to detect the expression levels of lipid metabolism-related genes in liver tissue.
Target of rapamycin (TOR) is a key protein in the control of autophagy, which can sense various change signals of cells and strengthen or reduce the occurrence level of autophagy.

[2] = tested on: C57 mice fed with 10% lard and 5% fructose; test: Liver pathology (HE, Oil red O staining, SAF scoring) in mice on high-fat and high-sugar diet; assay type: in vivo; details: vs high-fat group
Experimental: as §1

[3] = tested on: C57 mice fed with 10% lard and 5% fructose; test: Serum enzyme detection in mice on high-fat and high-sugar diet; assay type: in vivo; details: artemisinin 100 mg/kg for 12 weeks, vs high-fat diet
Experimental: as §1, with “system. […] The serum of each group of mice mentioned above was taken and subjected to serum enzyme detection.” for “system.”

[4] = tested on: C57 mice fed with 10% lard and 5% fructose; test: Expression of lipid metabolism-related genes in liver tissue of mice on high-fat and high-sugar diet; assay type: in vivo; details: artemisinin 100 mg/kg for 12 weeks, FIGS. 10A-10I
Experimental: as §1, with “system. […] A part of the livers of the mice in each group mentioned above was taken, RNA and protein were extracted, and the study of the expression of related genes and proteins was conducted to detect the expression levels of lipid metabolism-related genes in liver tissue.” for “system.”

HepG2 liver cancer cells [5] = test: Lipid accumulation (triglyceride content, Nile red lipid droplets) in FFA-treated HepG2 liver cancer cells; assay type: cell-based, human; details: 1 mM/L FFA, 5 μM/L artesunate, 24 h, vs model group
HepG2 liver cancer cells [6] = test: qRT-PCR expression of CIDE, AMPK pathway and PPAR pathway genes in FFA-treated HepG2 cells; assay type: cell-based, human; details: 1 mM/L FFA, 5 μM/L artesunate, 24 h
Experimental: Experimental methods: HepG-2 liver cancer cells with passage times less than 20 times were selected and inoculated into a 12-well plate at a density of 3×10^5 cells/mL. Drug treatment was performed after inoculating for 24 h, and the cells were divided into 3 groups with 4 wells in each group. A complete medium containing 1% bovine serum albumin (BSA) was used as the control group. A complete medium containing 1% BSA and 1 mM/L FFA was used as the high-fat model group. A complete medium containing 1% BSA, 1 mM/L FFA, and 5 μM/L, artesunate was used as the artesunate group. After being treated for 24 h, the cells were collected, and RNA was extracted and reverse-transcribed into cDNA. Quantitative real-time PCR (qRT-PCR) was used to detect the expression of CIDE series genes. AMPK signaling pathway-related genes, and PPAR signaling pathway-related genes in the three groups of cells.

[7] = vs model group, p<0.001, FIG. 7

Structure (SMILES) | mitochondrial dysfunction and autophagy (mitophagy) level in liver [1] | score of lobular inflammation (SAF scoring system) ([2]; artemisinin 100 mg/kg for 12 weeks, FIG. 9C) | score of ballooning of liver cells (SAF scoring system) ([2]; artemisinin 100 mg/kg for 12 weeks, FIG. 9D) | liver steatosis (fat blebs, Oil red O staining areas) ([2]; artemisinin 100 mg/kg from the 13th week for 12 weeks, FIG. 8) | ALT level in the serum ([3]; FIG. 9E) | AST level in the serum ([3]; FIG. 9F) | upstream gene expression levels of genes related to lipid synthesis in liver [4] | content of triglyceride (TG) in HepG2 liver cancer cells (HepG2 liver cancer cells [5]; FIG. 1) | number of large lipid droplets (Nile red staining) (HepG2 liver cancer cells [5]; FIGS. 2A-2B) | expression of SREBP1c-ACC/SCD1/FAS genes related to intracellular fatty acid synthesis (HepG2 liver cancer cells [6]; FIG. 5) | mRNA level of PPARct. (HepG2 liver cancer cells [6]; [7]) | mRNA level of PPARy (HepG2 liver cancer cells [6]; [7]) | mRNA level of AMPKα (PRKAA1) (HepG2 liver cancer cells [6]; vs model group, p<0.01, FIG. 4) | mRNA level of carnitine palmitoyl transferase 1 (CPT-1) (HepG2 liver cancer cells [6]; vs model group, p<0.01, FIG. 6) | mRNA expression of Cide-a gene (HepG2 liver cancer cells [6]; vs model group, FIG. 3) | mRNA expression of Cide-b gene (HepG2 liver cancer cells [6]; vs model group, FIG. 3)
C[C@@H]1CC[C@H]2[C@@H](C)C(=O)O[C@@H]3O[C@@]4(C)CC[C@@H]1[C@]32OO4 [artemisinin] | effectively resist the mitochondrial dysfunction and the decrease in the autophagy level | significantly reduced | significantly reduced | significantly improve liver steatosis | significantly reduce the elevation | significantly reduce the elevation | inhibited |  |  |  |  |  |  |  |  | 
C[C@H]1[C@H](OC(=O)CCC(=O)O)O[C@@H]2O[C@@]3(C)CC[C@H]4[C@H](C)CC[C@@H]1[C@@]24OO3 [artesunate] |  |  |  |  |  |  |  | significantly decreased | decreased | reduce the expression | significantly up-regulated | significantly up-regulated | significantly up-regulated | significantly up-regulated | significantly lower | significantly lower
